The target in one series is T1, 5-HT1A receptor (Rattus norvegicus, UniProt P19327).
T1 construct: Hippocampal homogenates (15 μg/mL) were added to each tube as the 5-HT1A receptor source; from tissue; host or cells: rat hippocampus (male Sprague-Dawley), membrane homogenate
T1 sequence (P19327 1-422): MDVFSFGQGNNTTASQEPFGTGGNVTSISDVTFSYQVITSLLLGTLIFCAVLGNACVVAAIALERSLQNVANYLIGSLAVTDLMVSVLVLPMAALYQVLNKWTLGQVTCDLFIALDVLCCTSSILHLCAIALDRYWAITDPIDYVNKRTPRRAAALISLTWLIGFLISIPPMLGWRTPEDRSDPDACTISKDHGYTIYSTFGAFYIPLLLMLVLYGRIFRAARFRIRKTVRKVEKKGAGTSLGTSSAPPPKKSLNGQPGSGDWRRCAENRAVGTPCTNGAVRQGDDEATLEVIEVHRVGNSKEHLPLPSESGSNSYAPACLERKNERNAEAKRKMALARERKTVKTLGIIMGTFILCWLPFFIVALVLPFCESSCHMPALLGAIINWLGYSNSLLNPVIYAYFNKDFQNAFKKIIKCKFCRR
The experiment in a line: Antagonist activity for the 5-HT1A receptor, [35S]GTPγS assay in hippocampal homogenates. To be noted: 8-OH-DPAT 1.4 × 10^−7 M, mean ± SEM; for EC50: antagonistic activity. It counts as biochemical. The protocol: Male Sprague–Dawley rats were decapitated, their brains removed, and placed on ice. Hippocampi were dissected and homogenized with a glass homogenizer in 30 vol. ice-cold TED buffer (50 mM Tris-HCl, 1 mM EDTA, 1mM dithiotheritol, pH 7.4). Next, the homogenate was centrifuged at 21,000× g for 30 min at 4 °C. […] The suspension was centrifuged again at 21,000× g for 30 min at 4 °C. The pellet was resuspended in 30 vol. TED buffer (pH 7.4) and the centrifugation step was repeated. The final pellet was suspended in 10 vol 50 mM Tris-HCl (pH 7.4) and stored at −80 °C until use.
Serial dilutions of the compounds tested (10^−10–10^−5 M) were incubated in triplicate with 0.8 nM [^35S]GTPγS in assay buffer (50 mM Tris-HCl, pH = 7.4, 1 mM EGTA, 3 mM MgCl2, 100 mM NaCl, 30 µM GDP) and 8-OH-DPAT (final concentration 1.4 × 10^−7 M) in the final assay volume of 250 µL. Hippocampal homogenates (15 μg/mL) were added to each tube as the 5-HT1A receptor source. […] Non-specific binding was determined with 10 µM of unlabeled GTPγS. […] Next, 96-well Unifilter® Plates (Perkin Elmer, Waltham, MA, USA) were presoaked for 1 h with 50 mM Tris-HCl (pH = 7.4) before harvesting. The reaction was terminated by vacuum filtration onto filter plates with the FilterMate Harvester® (Perkin Elmer, Waltham, MA, USA). The samples were then rapidly washed with 2 mL of 50 mM Tris-HCl (pH = 7.4) buffer. Filter plates were dried for 2 h at 50 °C. After drying, 45 µL of EcoScint-20 scintillant (Perkin Elmer) was added to every well. Radioactivity was counted in a Trilux MicroBeta^2 counter (Perkin Elmer). Data were analyzed with GraphPad Prism 5.0 software (GraphPad Software, San Diego, CA, USA, www.graphpad.com). Curves were fitted with a one-site non-linear regression model. Efficacy (Emax) and half maximal inhibitory concentration (IC50) were calculated from the Cheng–Prusoff equation and expressed as means ± SEM.

Another series deals with T2, 5-HT2A receptor (Rattus norvegicus, UniProt P14842).
T2 construct: from tissue; host or cells: rat frontal cortex (male SD), membrane homogenate
The experiment in a line: 5-HT2A competition binding assay, [3H]ketanserin, frontal cortex homogenates. To be noted: [3H]ketanserin 1 nM. The protocol:
Male SD rats were decapitated and their brains removed and placed on ice. Frontal cortices were homogenized with a glass homogenizer in 30 vol ice-cold homogenization buffer (50 mM Tris-HCl. 1 mM EDTA. 5 mM MgCl2. pH 7.4). Next, the homogenate was centrifuged at 20,000× g for 15 min at 4 °C. […] The suspension was again centrifuged at 20,000× g for 15 min at 4 °C. The pellet was resuspended in 10 vol. 50 mM Tris-HCl (pH 7.4) and the centrifugation step was repeated. The final pellet was suspended in 10 vol 50 mM Tris-HCl (pH 7.4) and stored at −80 °C.
Non-specific binding was determined in the presence of 10 μM mianserin. After incubation, the reaction mixture was deposited onto UniFilter-96 GF/B plates with the aid of a FilterMate-96 Harvester. Filter plates were presoaked beforehand with 0.4% PEI for 1 h. Next, each filter well was washed with 1.75 mL of 50 mM Tris-HCl (pH 7.4) and left to dry on a heating block set to 50 °C for 2 h. Then 45 µL of Microscint-20 scintillation fluid was added to each filter well and left to equilibrate overnight. Filter-bound radioactivity was counted in a MicroBeta^2 Microplate Counter. Binding curves were fitted with one site non-linear regression. Affinity was presented as the inhibitory constant (pKi ± SEM and Ki ± SEM) from two or three separate experiments.

Setting [1] is: read-out: Ki (nM ± SEM) (converted).
[2] abbreviates: read-out: pKi (M ± SEM) (converted).

Where two headings read alike, the source gives them in different places.

T2 sequence (P14842 whole entry): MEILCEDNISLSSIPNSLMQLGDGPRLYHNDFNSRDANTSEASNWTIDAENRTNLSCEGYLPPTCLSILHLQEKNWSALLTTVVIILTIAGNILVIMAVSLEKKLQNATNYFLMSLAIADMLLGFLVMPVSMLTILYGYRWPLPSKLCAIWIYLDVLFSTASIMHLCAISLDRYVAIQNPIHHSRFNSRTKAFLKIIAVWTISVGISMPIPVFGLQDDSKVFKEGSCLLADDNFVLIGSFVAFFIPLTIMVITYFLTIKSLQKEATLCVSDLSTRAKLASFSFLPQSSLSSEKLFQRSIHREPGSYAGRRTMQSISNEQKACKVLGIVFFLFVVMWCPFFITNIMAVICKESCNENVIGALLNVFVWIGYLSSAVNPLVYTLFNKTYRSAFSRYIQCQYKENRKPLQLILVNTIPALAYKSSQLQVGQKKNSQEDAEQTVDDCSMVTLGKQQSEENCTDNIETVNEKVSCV

Turning to `CC(=O)c1c(C)cc2oc(=O)cc(C)c2c1OCCN1CCN(c2cccc(F)c2)CC1` [Compound 4e, 6-acetyl-5-(2-(4-(3-fluorophenyl)piperazin-1-yl)ethoxy)-4,7-dimethyl-2H-chromen-2-one], the melting point – broadly, the temperature of the solid-liquid transition – lay in the range of 135 to 136 °C. At 5-HT1A receptor, 0.501 µM corresponded to half-maximal inhibition (IC50) and the EC50 (commonly the concentration that produces a half-maximal response) was found to be 527 ± 191 nM. Further, the Ki at 5-HT2A receptor (setting [1]) is 3860 ± 810 nM.
For `CC(=O)c1c(C)cc2oc(=O)cc(C)c2c1OCCN1CCN(c2ccccc2Br)CC1` [Compound 4f, 6-acetyl-5-(2-(4-(2-bromophenyl)piperazin-1-yl)ethoxy)-4,7-dimethyl-2H-chromen-2-one], in that order: 83 to 85 °C, 8.32 µM, 8320 ± 1500 nM and 10600 nM.
For `CC(=O)c1c(C)cc2oc(=O)cc(C)c2c1OCCN1CCN(c2cccc(Br)c2)CC1` [Compound 4g] the same measures were 127 to 128 °C, 12.6 µM, 11100 nM and 3990 ± 745 nM.
For `CC(=O)c1c(C)cc2oc(=O)cc(C)c2c1OCCN1CCN(c2cccc(Cl)c2Cl)CC1` [Compound 4i, 6-acetyl-5-(2-(4-(2,3-dichlorophenyl)piperazin-1-yl)ethoxy)-4,7-dimethyl-2H-chromen-2-one] the same measures were 162 to 163 °C, 3.16 µM, 3100 ± 148 nM and 1640 ± 344 nM.
`CC(=O)c1c(C)cc2oc(=O)cc(C)c2c1OCCN1CCN(c2ccccc2C#N)CC1` [Compound 4j, 6-acetyl-5-(2-(4-(2-cyanophenyl)piperazin-1-yl)ethoxy)-4,7-dimethyl-2H-chromen-2-one]: the melting point was in the range of 153 to 155 °C. Besides, at 5-HT1A receptor, the IC50 (in general, the midpoint of a concentration-inhibition curve) was 0.501 µM and the EC50 was found to be 538 ± 105 nM. In addition, the Ki on 5-HT2A receptor (setting [1]) was 2430 ± 374 nM.
`COc1ccccc1N1CCN(CCCCCOc2ccc3c(C)cc(=O)oc3c2C(C)=O)CC1` [Compound 5a, 8-acetyl-7-(5-[4-(2-methoxyphenyl)piperazin-1-yl]penthoxy)-4-methylchromen-2-one]: the melting point fell in the range of 126 to 128 °C. Also, on 5-HT1A receptor, the IC50 is 0.0316 µM and the EC50 was found to be 30.5 ± 2.56 nM. Also, at 5-HT2A receptor (setting [1]), the Ki was 343 ± 86 nM.
For `CC(=O)c1c(OCCCCCN2CCN(c3ccccc3F)CC2)ccc2c(C)cc(=O)oc12` [Compound 5b, 8-acetyl-7-(5-[4-(2-fluorophenyl)piperazin-1-yl]penthoxy)-4-methylchromen-2-one], in that order: 95 to 97 °C, 0.0794 µM, 82 ± 13.4 nM and 122 ± 43 nM.
For `CC(=O)c1c(OCCCCCN2CCN(c3cc(C)ccc3C)CC2)ccc2c(C)cc(=O)oc12` [Compound 5d, 8-acetyl-7-(5-[4-(2,5-dimethylphenyl)piperazin-1-yl]penthoxy)-4-methylchromen-2-one], in that order: 92 to 94 °C, 12.6 µM, 12900 nM and 1500 ± 279 nM.
With `CC(=O)c1c(OCCCCCN2CCN(c3cccc(F)c3)CC2)ccc2c(C)cc(=O)oc12` [Compound 5e, 8-acetyl-7-(5-[4-(3-fluorophenyl)piperazin-1-yl]penthoxy)-4-methylchromen-2-one], the melting point fell in the range of 117 to 119 °C. At 5-HT1A receptor, the concentration for half-maximal inhibition (IC50) was 31.6 µM and the concentration giving a half-maximal response (EC50) was found to be 33900 nM. In addition, the Ki on 5-HT2A receptor (setting [1]) is 2110 ± 420 nM.
Molecule `CC(=O)c1c(OCCCCCN2CCN(c3ccccc3Br)CC2)ccc2c(C)cc(=O)oc12` [Compound 5f, 8-acetyl-7-(5-[4-(2-bromophenyl)piperazin-1-yl]penthoxy)-4-methylchromen-2-one] showed a melting point of 102 to 103 °C. At 5-HT1A receptor, this molecule gave an IC50 of 31.6 µM and an EC50 of 27400 nM. Moreover, the Ki on 5-HT2A receptor (setting [1]) was 108 ± 24 nM. Also, the Ki on 5-HT2A receptor (setting [2]) was 110 nM.
`CC(=O)c1c(OCCCCCN2CCN(c3cccc(Br)c3)CC2)ccc2c(C)cc(=O)oc12` [Compound 5g, 8-acetyl-7-(5-[4-(3-bromohenyl)piperazin-1-yl]penthoxy)-4-methylchromen-2-one] displayed a melting point of 119 to 121 °C. For the same molecule, on 5-HT1A receptor, 25.1 µM corresponded to half-maximal inhibition (IC50) and the concentration giving a half-maximal response (EC50) came out at 21500 nM. In addition, on 5-HT2A receptor (setting [1]), the Ki was 81 ± 19 nM.
For `CC(=O)c1c(OCCCCCN2CCN(c3cc(C)cc(C)c3)CC2)ccc2c(C)cc(=O)oc12` [Compound 5h, 8-acetyl-7-(5-[4-(3,5-dimethylphenyl)piperazin-1-yl]penthoxy)-4-methylchromen-2-one] the same measures were 113 to 115 °C, 31.6 µM, 32900 nM and 291 ± 57 nM.
`CC(=O)c1c(OCCCCCN2CCN(c3cccc(Cl)c3Cl)CC2)ccc2c(C)cc(=O)oc12` [Compound 5i, 8-acetyl-7-(5-[4-(2,3-dichlorophenyl)piperazin-1-yl]penthoxy)-4-methylchromen-2-one] had a melting point of 137 to 139 °C. At 5-HT1A receptor, this molecule showed an IC50 of 63.1 µM and a concentration for a half-maximal effect (EC50) of 55900 nM. Further, the Ki on 5-HT2A receptor (setting [1]) was 51 ± 8.3 nM. Besides, at 5-HT2A receptor (setting [2]), the Ki was 63.1 nM.
Take `CC(=O)c1c(OCCCCCN2CCN(c3ccccc3C#N)CC2)ccc2c(C)cc(=O)oc12` [Compound 5j, 8-acetyl-7-(5-[4-(2-cyanophenyl)piperazin-1-yl]penthoxy)-4-methylchromen-2-one]: the melting point was in the range of 59 to 61 °C. At 5-HT1A receptor, this molecule showed an IC50 of 15.8 µM and an EC50 of 13900 nM. In addition, the Ki on 5-HT2A receptor (setting [1]) is 2550 ± 765 nM.
For `COc1ccccc1N1CCN(CCOc2ccc3c(C)cc(=O)oc3c2C(C)=O)CC1` [Compound 6a, 8-acetyl-7-(2-[4-(2-methoxyphenyl)piperazin-1-yl]ethoxy)-4-methylchromen-2-one], in that order: 157 to 159 °C, 3.16 µM, 2740 ± 626 nM and 752 ± 171 nM.
As for `CC(=O)c1c(OCCN2CCN(c3ccccc3F)CC2)ccc2c(C)cc(=O)oc12` [Compound 6b, 8-acetyl-7-(2-[4-(2-fluorophenyl)piperazin-1-yl]ethoxy)-4-methylchromen-2-one], the melting point was 137 to 139 °C. On 5-HT1A receptor, half-maximal inhibition (IC50) was put at 50.1 µM and the EC50 came to 45300 nM. Also, on 5-HT2A receptor (setting [1]), the Ki was 1510 ± 344 nM.
`COc1cccc(N2CCN(CCOc3ccc4c(C)cc(=O)oc4c3C(C)=O)CC2)c1` [Compound 6c, 8-acetyl-7-(2-[4-(3-methoxyphenyl)piperazin-1-yl]ethoxy)-4-methylchromen-2-one] returned a melting point of 122 to 124 °C. At 5-HT1A receptor, this molecule gave a half-inhibitory concentration (IC50) of 50.1 µM and a concentration for a half-maximal effect (EC50) of 47200 nM. Further, the Ki at 5-HT2A receptor (setting [1]) is 920 ± 160 nM. Also, the Ki at 5-HT2A receptor (setting [2]) was 933 nM.

The values are drawn from article PMC7996328, “Design, Synthesis, and Biological Evaluation of a Series of 5- and 7-Hydroxycoumarin Derivatives as 5-HT1A Serotonin Receptor Antagonists” (Pharmaceuticals, 2021).
